Data reported in US4738979A, “α2 -blocking derivatives of imidazole” (G. D. Searle & Co., priority 1985, dated 1988).

Experiments:
[1] = tested on: bicuculline-induced tonic extension in mice; assay: protection against bicuculline-induced tonic extension in mice; format: in vivo; details: Mus musculus, iv, 3 hours prior to bicuculline 0.7 mg/kg i.v., read-out: Anticonvulsive effect (versus Bicuculline) (% Protection)
Protocol: In the second study the anti-convulsant effect of the compounds of the present invention was examined in two seizure models; bicuculline-induced tonic extension in mice and 3-mercaptopropionic acid (3-MPA)-induced tonic extension in mice.
In the bicuculline study, the ability of the compounds of the present invention to protect against tonic extension (involving rigidity) was evaluated as follows. Each test compound was administered to a group of ten mice at a dose of 10 mg/kg, 3 hours prior to the i.v. administration of bicuculline (0.7 mg/kg). Anticonvulsant activity in this test is expressed as percentage of animals tested. The results are given in Table II, column 6, and indicate that several compounds display significant anticonvulsive activity in this test. The anticonvulsant effect of the compounds has also been tested with respect to the tonic extension induced by 3-mercaptopropionic acid (120 mg/kg subcutaneously) in mice.

α2 -adrenergic receptors [2] = target: T1, α2 -adrenergic receptors (Rattus norvegicus, UniProt P22909); assay: binding to α2-adrenergic receptors on rat brain homogenates (3H-p. aminoclonidine); details: 10^-7 M; rat brain homogenates; 0.7 nM 3H-p. aminoclonidine; read-out: % Inhibition of the Specific Binding at 10^-7 M for α2 Recep.
T1 construct: from tissue; host or cells: rat brain homogenates
T1 sequence (P22909 1-465): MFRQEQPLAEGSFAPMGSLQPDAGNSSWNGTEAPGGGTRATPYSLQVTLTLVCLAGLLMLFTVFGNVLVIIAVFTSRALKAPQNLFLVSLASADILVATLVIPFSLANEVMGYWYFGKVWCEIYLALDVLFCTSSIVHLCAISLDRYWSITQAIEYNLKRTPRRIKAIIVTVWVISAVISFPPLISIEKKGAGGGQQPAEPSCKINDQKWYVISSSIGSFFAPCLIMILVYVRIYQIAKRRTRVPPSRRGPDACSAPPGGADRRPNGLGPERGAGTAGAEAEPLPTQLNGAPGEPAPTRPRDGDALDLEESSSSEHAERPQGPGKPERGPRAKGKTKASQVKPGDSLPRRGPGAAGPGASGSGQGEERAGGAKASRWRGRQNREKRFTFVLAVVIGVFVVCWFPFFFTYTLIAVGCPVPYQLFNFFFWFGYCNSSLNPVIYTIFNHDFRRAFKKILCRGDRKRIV
Protocol: (§1) The activity of the compounds according to the invention with respect to binding of the α-adrenergic receptors was determined in vitro according to a method deriving from the works of B. R. Rouot et al., Life Sci., 25, 769 (1979) and of D. U'Prichard et al., Mol. Pharmacol., 13, 454 (1977). This method consists in measuring the binding to the receptor on rat brain homogenates, by marking by means of a specific tritriated ligand placed in competition with the product to be tested.
(§2) In the presenct case the binding to the α1 -adrenergic receptors was measured by means of 1.6 nM of ^3 H-WB 4101 and the binding to the α2 -adrenergic receptors by means of 0.7 nM of ^3 H-p. aminoclonidine, the non-specific binding being determined by 1,000 nM of phentolamine. The results are given in Table II, column 3, and are expressed in terms of percentage of inhibition of the specific binding of 10^-7 molar compound concentration.
(§3) (2) The specific binding is the total binding less the nonspecific
(§4) binding. The total binding is the binding in the absence of nonradioactiv
(§5) drug. The nonspecific binding is the binding in the presence of 1,000 nM
(§6) of phentolamine. The products of the invention are tested at a
(§7) concentration of 10^-7 molar.

α2 -adrenergic receptors [3] = target: T2, α2 -adrenergic receptors (Cavia porcellus, UniProt Q60474); assay: α2 antagonist and α2 agonist activity in isolated guinea pig ileum (clonidine)
T2 construct: from tissue; host or cells: isolated guinea pig ileum
T2 sequence (Q60474 1-464): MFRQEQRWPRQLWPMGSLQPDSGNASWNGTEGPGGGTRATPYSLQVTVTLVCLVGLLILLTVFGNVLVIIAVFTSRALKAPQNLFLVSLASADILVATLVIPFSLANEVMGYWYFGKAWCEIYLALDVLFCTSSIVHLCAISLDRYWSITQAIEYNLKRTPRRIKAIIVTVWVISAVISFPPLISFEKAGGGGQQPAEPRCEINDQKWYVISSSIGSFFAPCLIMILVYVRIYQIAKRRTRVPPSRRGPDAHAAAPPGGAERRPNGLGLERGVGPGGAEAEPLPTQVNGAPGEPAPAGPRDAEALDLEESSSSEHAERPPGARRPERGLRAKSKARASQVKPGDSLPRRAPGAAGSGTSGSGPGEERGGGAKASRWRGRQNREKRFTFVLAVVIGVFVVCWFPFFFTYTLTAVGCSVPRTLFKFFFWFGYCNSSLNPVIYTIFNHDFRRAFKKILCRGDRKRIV
Protocol: The α2 antagonist and α2 agonist activity of the compounds according to the invention was determined upon isolated organs according to a model described by G. M. Drews, Br. J. Pharmaco., 64, 293-300 (1978).
This model is based upon the principle that the stimulation of the cholinergic nervous transmissions of the guinea pig ileum causes the liberation of acetyl choline, which in turn causes contractions of the ileum.
The stimulation of the α2 -adrenergic receptors inhibits the activity of the cholinergic nerve and consequently reduces all response resulting from a timulation of the latter. Thus the contractions of the ileum induced by electric stimulation of the tissue are inhibited by clonidine, an α2 agonist, in proportion to the dose. This inhibition is specifically displaced by the α2 antagonists and not by the α1 antagonists.
The method utilized can be summarized as follows: three dose-response curves to clonidine are established at an interval of 60 minutes. Two concentrations of the product to be tested are added successively 10 minutes before the realization of the second and third clonidine curves. Next, after washing, a dose-response curve is established with the product to be tested.
The dose-response curves are calculated as a percentage of the maximum inhibition obtained for the first curve. In this system the products having an α2 antagonist activity displace the dose-response curve to clonidine. The α2 antagonist activity, expressed in pA2 value, shown in column 4, is calculated according to J. M. Van Rossum, Arch. Int. Pharmacodyn., 143, 299-300 (1963).
A reduction of the contractions induced by the tested product alone indicates an α2 agonist effect. This activity is expressed in--log ED50 (the--logarithm of the concentration of the product giving 50% of the maximum inhibition obtained with clonidine).
The higher the pA2 value, the higher the α2 antagonist activity; the higher the--log ED50 value (i.e., the pA2 agonist activity), the higher the α2 agonist activity.

α1 -adrenergic receptors = assay: binding to α1-adrenergic receptors on rat brain homogenates (3H-WB 4101); details: 1.6 nM 3H-WB 4101
Protocol: as §1, §2, §3, §4, §5, §6, §7

[4] = tested on: α2 adrenergic receptors of the central nervous system; assay: inhibition of the antihypertensive action of clonidine in spontaneously hypertensive rats (SHR); format: in vivo, rat; details: 1 mg/kg p.o., clonidine 50 μg/kg s.c.
Protocol: In the first study, carried out upon unanaesthetized spontaneously hypertensive rats (SHR rats), the ability of the compounds of the present invention to inhibit the antihypertensive action of clonidine was determined.
The antihypertensive activity of clonidine results from an interaction with α2 adrenergic receptors of the central nervous system, i.e., central antihypertensive actions.
In this test, two groups of SHR rats are utilized as follows. In the first group, prior to subcutaneous administration of clonidine (50 μg/kg), the SHR rats are treated with the compound to be tested (1 mg/kg p.o.) dissolved in a saline vehicle. The second group (control group) of SHR rats are treated with the saline vehicle only, prior to subcutaneous administration of clonidine.
The arterial pressure is measured in the region of the median coccygeal artery according to the method of J. Roba, A. F. DeSchaepdrijver, Exp. Anim., 4, 147-162 (1971).
The results of this assay summarized in Table II, column 5, are expressed as a percentage of inhibition of the effect of clonidine.

[5] = acute toxicity after oral administration to mice (LD50); details: mouse, in vivo, 15 days mortality
Protocol: The acute toxicity of the compounds of the present invention was studied after oral administration to mice. The products to be tested, suspended in a 1% tragacanth gum mucilage, were administered by means of an intragastric probe to groups of three male mice which had fasted since the preceding day. The doses tested are a function of the effect observed and can vary from 3,000 to 3 mg/kg or less. The mortality was recorded for 15 days. The lethal dose for 50% of the animals (LD50) was calculated according to the method of J. Litchfield and F. Wilcoxon, J. Pharmacol. Exp. Ther., 96, 99 (1949) and expressed in mg/kg. The effect of the products on the behaviour of the animals is observed until 5 to 6 hours after the treatment indicated above and after 24 hours, using a method derived from that of S. Irwin, described by R. A. Turner, Screening Methods in Pharmacology, Chapter 3, pages 22-34, Academic Press, 1965. If anomalies are noted, the observation is prolonged and smaller doses are tested.

Row | Structure (SMILES) | responders at 10 mg/kg [1] | inhibition at 0.1 µM (α2 -adrenergic receptors [2]) | EC50 (α2 -adrenergic receptors [3]; 50% of maximum inhibition obtained with clonidine, read-out: α2 Agonist Activity (-log ED50) (converted)) | Kb (α2 -adrenergic receptors [3]; versus clonidine, read-out: α2 Antagonist Activity (pA2) (converted)) | % Inhibition of the Specific Binding at 10^-7 M for α1 Recep. (α1 -adrenergic receptors) | α2 Antagonist (% Inhibition of the Antihypertension of Clonidine) [4] | LD50 at 360 h [5]
1 | CC(=C(c1ccccc1)c1ccccc1)c1c[nH]cn1 [Compound 2, 4(5)-[(2,2-diphenyl-1-methyl)ethenyl]imidazole] | 20% | 43% | 2510 nM | 50.1 nM | 3% | 71% | –
2 | OC(c1c[nH]cn1)C(c1ccccc1)c1ccccc1 (stereo not shown) [Compound 5] | 30% | 2% | – | – | 3% | 24% | > 300 mg/kg
3 | COC(c1c[nH]cn1)C(c1ccccc1)c1ccccc1 (stereo not shown) [Compound 6] | 30% | 0% | – | – | 0% | 62% | –
4 | c1ccc(C(Cc2c[nH]cn2)(c2ccccc2)c2ccccc2)cc1 [Compound 8] | 20% | 0% | – | – | 0% | 28% | 1.75 mg/kg
5 | C(=C(c1ccccc1)c1ccccc1)c1c[nH]cn1 [Compound 11] | 40% | 9% | – | – | 6% | 48% | –
6 | CCCC(=C(c1ccccc1)c1ccccc1)c1c[nH]cn1 [Compound 18, 4(5)-[(2,2-diphenyl-1-n.propyl)-ethenyl]-imidazole] | 50% | 0% | – | – | 0% | 47% | 270 mg/kg
7 | CCCC(c1c[nH]cn1)C(c1ccccc1)c1ccccc1 (stereo not shown) [Compound 19, 4(5)-[2-(1,1-diphenyl)pentyl]imidazole] | 40% | 15% | – | – | 4% | 75% | 350 mg/kg
8 | CCCC(OC)(c1c[nH]cn1)C(c1ccccc1)c1ccccc1 (stereo not shown) [Compound 20, 4(5)-[2-(1,1-diphenyl-2-methoxy)-pentyl]imidazole] | 60% | 6% | – | – | 0% | 62% | > 300 mg/kg
9 | Cc1nc(CC(c2ccccc2)c2ccccc2)c[nH]1 [Compound 25, 4(5)-(2,2-diphenylethyl)-2-methylimidazole] | 10% | 3% | – | – | 0% | 87% | –
10 | COC(c1c[nH]c(C)n1)C(c1ccccc1)c1ccccc1 (stereo not shown) [Compound 26] | 10% | 2% | – | – | 1% | – | 350 mg/kg
11 | O=C(O)c1ccccc1C(Cc1c[nH]cn1)c1ccccc1 (stereo not shown) [Compound 30] | – | 1% | – | – | 12% | – | > 300 mg/kg
12 | COC(=O)c1ccccc1C(Cc1c[nH]cn1)c1ccccc1 (stereo not shown) [Compound 31] | – | 20% | – | – | 13% | – | –
